The record followed here is patent US11078198B2 (BRISTOL-MYERS SQUIBB COMPANY, priority 2017, dated 2021).

The test addresses T1, human FXR (Homo sapiens, UniProt Q96RI1).
T1 construct: expressed in transfected cells; host or cells: HEK293 cells stably carrying a 5xGal4-response-element firefly luciferase reporter, transiently transfected with pcDNA3.1-Gal4-FXR
T1 sequence (Q96RI1 262-486 limits assumed): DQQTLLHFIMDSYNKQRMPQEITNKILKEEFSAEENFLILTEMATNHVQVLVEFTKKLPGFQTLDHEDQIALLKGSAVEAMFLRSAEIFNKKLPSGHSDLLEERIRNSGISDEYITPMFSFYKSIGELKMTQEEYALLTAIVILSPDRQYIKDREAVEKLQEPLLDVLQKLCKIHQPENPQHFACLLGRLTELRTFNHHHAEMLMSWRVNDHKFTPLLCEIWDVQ
The experiment in a line: transient human FXR/Gal4-luciferase reporter assay. The test is classed as cell-based. Particulars: Gal4-hFXR transfected HEK293 reporter cells; relative to 8 μM GW-4064. Here is the method: A Gal4-hFXR fusion construct reporter system was used as the primary assay to characterize compound activity. A construct including 5 copies of the Gal4 promoter response element upstream of a firefly luciferase reporter cDNA was stably expressed in HEK293 cells. This reporter cell line was maintained in Dulbecco's Modified Eagle's medium (DMEM; Gibco) supplemented with 1% penicillin-streptomycin (P/S) solution, 500 μg/mL Zeocin and 10% charcoal/dextran-treated fetal bovine serum (cs-FBS) at 37° C. in a humidified 5% CO2 atmosphere. Another plasmid was constructed in which the human cytomegalovirus promoter in the pcDNA3.1 vector directs the expression of the cDNA encoding a fusion protein comprised of the DNA binding domain from the Gal4 transcription factor fused to the ligand binding domain from human FXR.
The day prior to transfection, the reporter cells in culture are detached from the plate with trypsin and plated into a T75 flask at a sufficient density to achieve approximately 90% confluence the next morning. The transfection reagents are prepared by separately diluting 25 μg of the pcDNA3.1-Gal4-FXR plasmid into 1.87 mL of Opti-MEM (Thermo-Fisher), and 40 μL of Lipofectamine 2000 (Thermo-Fisher) into 1.87 mL of Opti-MEM, and then adding the diluted DNA solution into the diluted Lipofectamine 2000 solution and incubating at room temperature for 15-20 minutes. The mixture is further diluted with 10 mL of a solution comprised of DMEM, 10% cs-FBS, and 1% P/S immediately prior to transferring to the cells. The maintenance culture media is aspirated from the cells and the final transfection mixture is added before the cells are incubated overnight at 37° C. in a humidified 5% CO2 atmosphere. This protocol can be scaled up, and the transiently transfected cells can be cryopreserved in an assay-ready format.
For compound testing, 100 nL of the compounds (serial dilutions in DMSO) are dispensed with an Echo acoustic dispenser (Labcyte) into the wells of a Corning/Costar clear bottom 384-well white plate. The transfected cells are harvested, counted, and diluted such that 10-25,000 cells in 25 μL are plated into each well of the 384-well compound assay plate. The compound-treated cells are incubated overnight at 37° C. in a humidified 5% CO2 atmosphere.

`COc1ccc(C(=O)O)c2ccc(N3CCC4(C=C(c5c(-c6c(Cl)cncc6Cl)noc5C5CC5)C4)CC3)nc12` [Example 64, 2-(2-(5-Cyclopropyl-3-(3,5-dichloropyridin-4-yl)isoxazol-4-yl)-7-azaspiro[3.5]non-1-en-7-yl)-8-methoxyquinoline-5-carboxylic acid] yielded an EC50 of 49 nM.
`O=C(O)c1ccc2nc(N3CCC4(C=C(c5c(-c6ccccc6C(F)(F)F)noc5C5CC5)C4)CC3)sc2n1` [Example 102, 2-(2-(5-Cyclopropyl-3-(2-(trifluoromethyl)phenyl)isoxazol-4-yl)-7-azaspiro[3.5]non-1-en-7-yl)thiazolo[5,4-b]pyridine-5-carboxylic acid] gave an EC50 of 18 nM.
The value for `O=C(O)c1nc(C(F)(F)F)n2cc(N3CCC4(C=C(c5c(-c6c(Cl)cccc6Cl)noc5C5CC5)C4)CC3)ccc12` [Example 126, 6-(2-(5-Cyclopropyl-3-(2,6-dichlorophenyl)isoxazol-4-yl)-7-azaspiro[3.5]non-1-en-7-yl)-3-(trifluoromethyl)imidazo[1,5-a]pyridine-1-carboxylic acid] was 102 nM.
As to `O=C(O)c1cnc2nc(N3CCC4(C=C(c5c(-c6c(Cl)cccc6Cl)noc5C5CC5)C4)CC3)sc2c1` [Example 177, 2-(2-(5-Cyclopropyl-3-(2,6-dichlorophenyl)isoxazol-4-yl)-7-azaspiro[3.5]non-1-en-7-yl)thiazolo[4,5-b]pyridine-6-carboxylic acid], the EC50 worked out at 121 nM.
As to `O=C(O)c1cnc(N2CCC3(C=C(c4c(-c5c(Cl)cccc5Cl)noc4C4CC4)C3)CC2)cn1` [Example 19, 5-(2-(5-Cyclopropyl-3-(2,6-dichlorophenyl)isoxazol-4-yl)-7-azaspiro[3.5]non-1-en-7-yl) pyrazine-2-carboxylic acid], the EC50 was found to be 110 nM.
As for `O=C(O)c1cc(F)c2nc(N3CCC4(CC3)CC(O)(c3c(-c5c(Cl)cccc5Cl)noc3C3CC3)C4)sc2c1` [Example 33, 2-(2-(5-Cyclopropyl-3-(2,6-dichlorophenyl)isoxazol-4-yl)-2-hydroxy-7-azaspiro[3.5]nonan-7-yl)-4-fluorobenzo[d]thiazole-6-carboxylic acid], the EC50 was determined as 4800 nM.
The value for `Cn1cc(C(=O)O)c2ccc(N3CCC4(C=C(c5c(-c6c(Cl)cccc6Cl)noc5C5CC5)C4)CC3)nc21` [Example 7, 6-(2-(5-Cyclopropyl-3-(2,6-dichlorophenyl)isoxazol-4-yl)-7-azaspiro[3.5]non-1-en-7-yl)-1-methyl-1H-pyrrolo[2,3-b]pyridine-3-carboxylic acid] was 24 nM.
Molecule `O=C(O)c1cc(C(F)(F)F)c2cc(N3CCC4(C=C(c5c(-c6c(F)cccc6Cl)noc5C5CC5)C4)CC3)ccc2n1` [Example 88, 6-(2-(3-(2-Chloro-6-fluorophenyl)-5-cyclopropylisoxazol-4-yl)-7-azaspiro[3.5]non-1-en-7-yl)-4-(trifluoromethyl)quinoline-2-carboxylic acid] displayed an EC50 of 150 nM.
The value for `O=C(O)c1ccc(N2CCC3(C=C(c4c(-c5c(Cl)cncc5Cl)noc4C4CC4)C3)CC2)nc1` [Example 66, 6-(2-(5-Cyclopropyl-3-(3,5-dichloropyridin-4-yl)isoxazol-4-yl)-7-azaspiro[3.5]non-1-en-7-yl)nicotinic acid] was 342 nM; that for `Cn1nc(C(=O)O)c2ccc(N3CCC4(C=C(c5c(-c6ccccc6OC(F)(F)F)noc5C5CC5)C4)CC3)cc21` [Example 165, 6-(2-(5-Cyclopropyl-3-(2-(trifluoromethoxy)phenyl)isoxazol-4-yl)-7-azaspiro[3.5]non-1-en-7-yl)-1-methyl-1H-indazole-3-carboxylic acid] was 2980 nM.
`O=C(O)c1ncc(N2CCC3(C=C(c4c(-c5c(Cl)cccc5Cl)noc4C4CC4)C3)CC2)cn1` [Example 22, 5-(2-(5-Cyclopropyl-3-(2,6-dichlorophenyl)isoxazol-4-yl)-7-azaspiro[3.5]non-1-en-7-yl) pyrimidine-2-carboxylic acid] came in with a concentration for a half-maximal effect (EC50) of 1500 nM. Compared with the last molecule, the EC50 is about 2-fold lower.
The molecule `O=C(O)c1cc(OCCO)c2cc(N3CCC4(C=C(c5c(-c6ccccc6C(F)(F)F)noc5C5CC5)C4)CC3)ccc2n1` [Example 143, 6-(2-(5-Cyclopropyl-3-(2-(trifluoromethyl)phenyl)isoxazol-4-yl)-7-azaspiro[3.5]non-1-en-7-yl)-4-(2-hydroxyethoxy)quinoline-2-carboxylic acid] returned an EC50 of 159 nM.
The value for `O=C(O)c1ccc(N2CCC3(C=C(c4c(-c5ccccc5Cl)noc4C4CC4)C3)CC2)cc1` [Example 14, 4-(2-(3-(2-Chlorophenyl)-5-cyclopropylisoxazol-4-yl)-7-azaspiro[3.5]non-1-en-7-yl)benzoic acid] was 885 nM.
`CCOc1cc(C(=O)O)nc2ccc(N3CCC4(C=C(c5c(-c6c(Cl)cncc6Cl)noc5C5CC5)C4)CC3)cc12` [Example 107, 6-(2-(5-Cyclopropyl-3-(3,5-dichloropyridin-4-yl)isoxazol-4-yl)-7-azaspiro[3.5]non-1-en-7-yl)-4-ethoxyquinoline-2-carboxylic acid] had an EC50 of 31 nM.
The value for `O=C(O)c1cc(F)c2nc(OC3CCC4(CC3)CC(O)(c3c(-c5c(Cl)cccc5Cl)noc3C3CC3)C4)sc2c1` (centres unmarked) [Example 205, 2-((2-(5-Cyclopropyl-3-(2,6-dichlorophenyl)isoxazol-4-yl)-2-hydroxyspiro[3,5]nonan-7-yl)oxy)-4-fluorobenzo[d]thiazole-6-carboxylic acid] was 2620 nM; that for `O=C(O)c1cc2ccc(N3CCC4(C=C(c5c(-c6cnccc6C(F)(F)F)noc5C5CC5)C4)CC3)cc2nn1` [Example 81, 7-(2-(5-Cyclopropyl-3-(4-(trifluoromethyl)pyridin-3-yl)isoxazol-4-yl)-7-azaspiro[3.5]non-1-en-7-yl)cinnoline-3-carboxylic acid] was 1540 nM; that for `C[Si](C)(C)CCOCn1cc(C(=O)O)c2ccc(N3CCC4(C=C(c5c(-c6c(Cl)cccc6Cl)noc5C5CC5)C4)CC3)cc21` [Example 131, 6-(2-(5-Cyclopropyl-3-(2,6-dichlorophenyl)isoxazol-4-yl)-7-azaspiro[3.5]non-1-en-7-yl)-1-((2-(trimethylsilyl)ethoxy)methyl)-1H-indole-3-carboxylic acid] was 445 nM.
With `O=C(NS(=O)(=O)C1CC1)c1cc(C(F)(F)F)c2cc(N3CCC4(C=C(c5c(-c6c(Cl)cncc6Cl)noc5C5CC5)C4)CC3)ccc2n1` [Example 183, 6-(2-(5-Cyclopropyl-3-(3,5-dichloropyridin-4-yl)isoxazol-4-yl)-7-azaspiro[3.5]non-1-en-7-yl)-N-(cyclopropylsulfonyl)-4-(trifluoromethyl)quinoline-2-carboxamide], the EC50 was 55 nM.
The molecule `O=C(O)c1cc(C(F)(F)F)c2cc(N3CCC4(C=C(c5c(-c6ncccc6Cl)noc5C5CC5)C4)CC3)ccc2n1` [Example 91, 6-(2-(3-(3-Chloropyridin-2-yl)-5-cyclopropylisoxazol-4-yl)-7-azaspiro[3.5]non-1-en-7-yl)-4-(trifluoromethyl)quinoline-2-carboxylic acid] showed an EC50 of 219 nM.
The value for `CS(=O)(=O)NC(=O)c1cc(F)c2nc(N3CCC4(C=C(c5c(-c6c(Cl)cncc6Cl)noc5C5CC5)C4)CC3)sc2c1` [Example 182, 2-(2-(5-Cyclopropyl-3-(3,5-dichloropyridin-4-yl)isoxazol-4-yl)-7-azaspiro[3.5]non-1-en-7-yl)-4-fluoro-N-(methylsulfonyl)benzo[d]thiazole-6-carboxamide] was 688 nM.
